Measured values as given in ChEMBL document CHEMBL1143157, “New fused benzazepine as selective D3 receptor antagonists. Synthesis and biological evaluation. Part 2: [g]-fused and hetero-fused systems” (Bioorg Med Chem Lett, 2008).

What was measured:
in vivo [1] = details: rat, brain and blood, iv
in vivo [2] = details: rat, whole blood
in vivo [3] = details: rat
in vivo [4] = details: rat, po
in vivo [5] = details: rat; remark: listed apart in the source

Structure (SMILES) | Kp at 1 h (in vivo [1]) | clearance (in vivo [2]) | Vd (in vivo [3]) | bioavailability (in vivo [4]) | half-life (in vivo [5])
Cc1ccc2c(-c3nnc(SCCCN4CCc5ccc6nc(C(C)(F)F)oc6c5CC4)n3C)cccc2n1 | 4 | 43 mL/min/kg | 3.31 L/kg | 8% | –
Cc1ccc2c(-c3nnc(SCCCN4CCc5ccc6oc(C)nc6c5CC4)n3C)cccc2n1 | 2.5 | 48 mL/min/kg | – | 15% | 1.7 h

Other lines, results leading:

Kp at 1 h (in vivo [1]) | clearance (in vivo [2]) | Vd (in vivo [3]) | bioavailability (in vivo [4]) | half-life (in vivo [5]) | Structure (SMILES)
0.8 | 35 mL/min/kg | 1.6 L/kg | 63% | 0.6 h | Cc1ncoc1-c1nnc(SCCCN2CCc3ccc4oc(C(F)(F)F)nc4c3CC2)n1C
0.1 | 5 mL/min/kg | 0.61 L/kg | 73% | 1.9 h | CCc1nc2c3c(ccc2o1)CCN(CCCSc1nnc(-c2ocnc2C)n1C)CC3
0.2 | 9 mL/min/kg | 0.8 L/kg | 54% | 1.2 h | Cc1ncoc1-c1nnc(SCCCN2CCc3ccc4oc(C(C)(F)F)nc4c3CC2)n1C
